# From patent US20110028420A1, “Regression of Established Atherosclerotic Plaques, and Treating Sudden-Onset Asthma Attacks, using PARP Inhibitors” (priority 2008, published 2011)
# Marks after values point to notes of the source that are not given here.
# Assays:
# [1] = test system: rat; details: cited from earlier work
# [2] = test system: mice; details: chronic administration; cited from earlier work
# [3] = test system: C57BL/6 ApoE−/− mice; assay: Atherosclerotic plaque size and number in aortas of high-fat-diet-fed ApoE−/− mice (en face Oil-Red-O staining); format: in vivo
# Text: (§1) C57BL/6 ApoE^−/− mice (Jackson Laboratory, Bar Harbor, Me.) were housed and bred in a pathogen-free animal care facility at LSUHSC (New Orleans, La.), and were given full access to laboratory rodent chow and water. Principles of laboratory animal care were followed (NIH publication No. 86-23, revised 1985). Experimental protocols were approved by the LSUHSC Animal Care and Use Committee. The animals were divided into six groups to provide proper controls, and to allow calculation of the significance of the results. All Groups were ApoE^−/− mice. The mice were fed a regular diet or a high fat diet for 12 or 16 weeks; in some cases mice that had been fed a high fat diet for 12 weeks were switched to a regular diet for the final 4 weeks (16 weeks total). Some mice were given injections of TIQ-A during the final four weeks, while others were injected with vehicle as controls:
# (§2) The high-fat diet (Harlan Teklad, Madison, Wis.) contained 21% fat by weight (0.15% cholesterol). The regular diet was normal laboratory rodent chow. Controls were given i.p. injections of vehicle three times per week, during the final four weeks. Experimental Groups received i.p. injections of the PARP inhibitor thieno[2,3-c]isoquinolin-5-one (TIQ-A) (Sigma-Aldrich, St Louis, Mo.) at the rate of 3 mg/kg, three times per week, during the last 4 weeks. At the conclusion of each protocol, the mice were fasted, anesthetized with ketamine/xylazine (60 and 3 mg/kg, respectively), and blood was drawn for serum preparation.
# (§3) Perfusion-fixed aortas were dissected and prepared either for en face, Oil-Red-O staining using standard protocols, or for embedding in paraffin. Tissues were sectioned and were stained following standard protocols with haematoxylin and eosin (H&E), trichrome staining, or immunohistochemistry (IHC). Lesion areas were assessed as described in K. Oumona-Benachour et al. (2007). IHC used antibodies against murine smooth muscle actin (SMA) (Santa Cruz Biotechnologies, Santa Cruz, Calif.), or antibodies against CD68. Immunoreactivity was assessed in captured images of immunostained stained sections as described in K. Oumona-Benachour et al. (2007).
# [4] = Fasted plasma cholesterol and LDL (Cholestech LDX); format: in vivo, mice; details: after overnight fasting; Group 6
# Protocol: as §2
# Plasma cholesterol and LDL were analyzed using a commercially available kit according to the manufacturer's instructions (Cholestech LDX, Hayward, Calif.).
# [5] = test system: ICAM-1; assay: Quantitative RT-PCR of ICAM-1 in thoracic aorta; format: in vivo; details: thoracic aortas of Group 6 mice
# Text: (§4) RNA was extracted from thoracic aortas, and cDNA was generated by standard methods. PCR Primers for MCP-1 and for actin were as described in C. Hans et al., “Thieno[2,3-c]isoquinolin-5-one (TIQ-A), a potent poly(ADP-ribose) polymerase inhibitor, promotes atherosclerotic plaque regression in high fat diet-fed ApoE-deficient mice: effects on inflammatory markers and lipid content,” J. Pharm. Exp. Ther., vol. 329, pp. 150-158 (2009, published online Jan. 5, 2009). Amplification, detection, and data analysis were performed with the iCycler real-time PCR system (Bio-Rad Laboratories, Hercules, Calif.).
# In addition to MCP-1, the recruitment and their retention of monocytes and macrophages within atherosclerotic plaques requires the expression of adhesion molecules by endothelial and intimal cells. In particular, the adhesion molecule ICAM-1 expression is expressed in the later stages of plaques.
# [6] = test system: CCR2; assay: Expression of the MCP-1 receptor CCR2; format: in vivo; details: TIQ-A-treated mice
# [7] = test system: TNF; assay: Quantitative RT-PCR of TNF; format: in vivo, mice; details: Group 6
# [8] = test system: mice; details: administration prior to allergen challenge; cited from earlier work
# [9] = test system: C57BL/6 mice; assay: Mucus production in airways of OVA-challenged mice (PAS staining, histological mucin index); format: in vivo
# Protocol: (§5) Mice were bred in a pathogen-free facility at the Louisiana State University Health Science Center (LSUHSC), New Orleans, La., and were given unlimited access to sterilized chow and water. Animal maintenance, experimental protocols, and procedures were approved by the LSUHSC Animal Care & Use Committee. C57BL/6 mice were purchased from Jackson Laboratories (Bar Harbor, Me.). Six-week old C57BL/6 mice (n z 5) were sensitized with two, 100 μg i.p. injections of Grade V chicken ovalbumin (OVA) (Sigma-Aldrich, St. Louis Mo.), mixed with 2 mg aluminum hydroxide in saline. The two injections were given seven days apart. One week after the second sensitization the mice were placed in a Plexiglas chamber and challenged with aerosolized ovalbumin (3% OVA in saline, generated by a Bennett nebulizer, DeVilbiss, Pa.). The challenged mice were held in the chamber with the aerosolized OVA for 30 min. Additional groups of mice were treated by the same protocol, except that they received 6 mg/kg TIQ-A (i.p.) 2 hours prior to challenge, 1 hour post-challenge, or 6 hours post-challenge with OVA. Control groups were neither sensitized, nor challenged. The mice used in each experiment were from the same litter or the same family. Mice were allowed to recover, and then killed by CO2 asphyxiation after 24 or 48 hours. The sacrificed mice were subjected to bronchio-alveolar lavage (BAL), or their lung tissues were dissected, fixed, and processed for histological analysis.
# (§6) A final volume of 5 ml saline was used in BAL to assess inflammatory cells (48 hours post OVA-challenge), or 1 ml saline was used to assess cytokines or IgE (24 hours post OVA-challenge). Formalin-fixed lungs were sectioned and subjected to haematoxylin and eosin (H&E), Periodic Acid-Schiff (PAS)-staining using standard protocols. Mucin was assessed essentially as described in L. Whittaker et al., Am. J. Respir. Cell. Mol. Biol., vol. 27, pp. 593-602 (2002). […] OVA-specific IgE was quantified by a sandwich ELISA (Serotec, Raleigh, N.C.) essentially as described in Oumona et al. (2006).
# [10] = test system: C57BL/6 ApoE−/− mice; assay: Histology, trichrome staining and immunohistochemistry (SMA, CD68, MCP-1) of atherosclerotic plaques; format: in vivo
# Text: as §1, §2, §3
# [11] = test system: C57BL/6 mice; assay: Eosinophil and inflammatory cell infiltration in lungs and BAL fluid of OVA-sensitized and challenged mice; format: in vivo
# Protocol: as §5, §6
# [12] = test system: C57BL/6 mice; assay: Airway hyperresponsiveness: lung resistance to methacholine by forced oscillation; format: in vivo; details: TIQ-A post-OVA challenge; methacholine 50 mg/ml, 24 hours after OVA exposure
# Protocol: as §5, with “The mice used in each experiment were from the same litter or the same family. Mice were allowed to recover, and then killed by CO2 asphyxiation after 24 or 48 hours. The sacrificed mice were subjected to bronchio-alveolar lavage (BAL), or their lung tissues were dissected, fixed, and processed for histological analysis.” left out
# Twenty-four hours after OVA challenge lung resistance to increasing doses of methacholine (MeCh, Sigma; 0, 25, and 50 mg/ml in isotonic saline) was assessed by forced oscillation, essentially as described in D. You et al., Respir. […]
# [13] = test system: OVA-specific IgE; assay: OVA-specific IgE in BAL fluid (sandwich ELISA); format: in vivo, mice; details: 24 hours post-challenge
# Protocol: (§7) Mice were bred in a pathogen-free facility at the Louisiana State University Health Science Center (LSUHSC), New Orleans, La., and were given unlimited access to sterilized chow and water. Animal maintenance, experimental protocols, and procedures were approved by the LSUHSC Animal Care & Use Committee. C57BL/6 mice were purchased from Jackson Laboratories (Bar Harbor, Me.). Six-week old C57BL/6 mice (n z 5) were sensitized with two, 100 μg i.p. injections of Grade V chicken ovalbumin (OVA) (Sigma-Aldrich, St. Louis Mo.), mixed with 2 mg aluminum hydroxide in saline. The two injections were given seven days apart. One week after the second sensitization the mice were placed in a Plexiglas chamber and challenged with aerosolized ovalbumin (3% OVA in saline, generated by a Bennett nebulizer, DeVilbiss, Pa.). The challenged mice were held in the chamber with the aerosolized OVA for 30 min. […]
# (§8) A final volume of 5 ml saline was used in BAL to assess inflammatory cells (48 hours post OVA-challenge), or 1 ml saline was used to assess cytokines or IgE (24 hours post OVA-challenge). […] Mucin was assessed essentially as described in L. Whittaker et al., Am. […] OVA-specific IgE was quantified by a sandwich ELISA (Serotec, Raleigh, N.C.) essentially as described in Oumona et al. (2006).
# [14] = test system: MCP-1; assay: Quantitative RT-PCR of MCP-1 in thoracic aorta; format: in vivo, mice; details: normalized versus β-actin
# Text: as §4
# Several pathways may play a role in the regression of plaques, including some that interfere with the recruitment and retention of monocytes, macrophages and foam cells, cells that appear to be required for the maintenance of advanced plaques. In particular, the continuing recruitment of macrophages into lesions is considered a major factor in maintaining the size and complexity of atherosclerotic plaques. […] To confirm that the decrease in CD68-positive cells was associated with reduced expression of chemotactic factors, we used quantitative RT-PCR to monitor the effect of TIQ-A on MCP-1 expression. We measured transcription of the MCP-1 gene in the thoracic aorta using primers specific for murine MCP-1. Measured values were normalized versus measured levels of transcription of the β-actin gene.
# [15] = test system: IL-4, IL-5 and IL-13; assay: Th2 cytokines in BAL fluid of OVA-challenged mice (Bio-Rad Bioplex); format: in vivo; details: BAL 24 hours after challenge; TIQ-A after versus before OVA challenge
# Protocol: as §7, §8
# [16] = biological target: T1, PARP1 (Mus musculus, UniProt P11103); details: cortical neuron cultures; cited from earlier work
# T1 construct: host or cells: cortical neuron cultures
# [17] = Group 3: high fat diet for 16 weeks, TIQ-A 3 mg/kg i.p. three times per week during last 4 weeks
# [18] = Group 6: high fat diet for 12 weeks, then regular diet during last 4 weeks with TIQ-A 3 mg/kg i.p. three times per week
# T1 sequence (P11103 2-1013 limits assumed): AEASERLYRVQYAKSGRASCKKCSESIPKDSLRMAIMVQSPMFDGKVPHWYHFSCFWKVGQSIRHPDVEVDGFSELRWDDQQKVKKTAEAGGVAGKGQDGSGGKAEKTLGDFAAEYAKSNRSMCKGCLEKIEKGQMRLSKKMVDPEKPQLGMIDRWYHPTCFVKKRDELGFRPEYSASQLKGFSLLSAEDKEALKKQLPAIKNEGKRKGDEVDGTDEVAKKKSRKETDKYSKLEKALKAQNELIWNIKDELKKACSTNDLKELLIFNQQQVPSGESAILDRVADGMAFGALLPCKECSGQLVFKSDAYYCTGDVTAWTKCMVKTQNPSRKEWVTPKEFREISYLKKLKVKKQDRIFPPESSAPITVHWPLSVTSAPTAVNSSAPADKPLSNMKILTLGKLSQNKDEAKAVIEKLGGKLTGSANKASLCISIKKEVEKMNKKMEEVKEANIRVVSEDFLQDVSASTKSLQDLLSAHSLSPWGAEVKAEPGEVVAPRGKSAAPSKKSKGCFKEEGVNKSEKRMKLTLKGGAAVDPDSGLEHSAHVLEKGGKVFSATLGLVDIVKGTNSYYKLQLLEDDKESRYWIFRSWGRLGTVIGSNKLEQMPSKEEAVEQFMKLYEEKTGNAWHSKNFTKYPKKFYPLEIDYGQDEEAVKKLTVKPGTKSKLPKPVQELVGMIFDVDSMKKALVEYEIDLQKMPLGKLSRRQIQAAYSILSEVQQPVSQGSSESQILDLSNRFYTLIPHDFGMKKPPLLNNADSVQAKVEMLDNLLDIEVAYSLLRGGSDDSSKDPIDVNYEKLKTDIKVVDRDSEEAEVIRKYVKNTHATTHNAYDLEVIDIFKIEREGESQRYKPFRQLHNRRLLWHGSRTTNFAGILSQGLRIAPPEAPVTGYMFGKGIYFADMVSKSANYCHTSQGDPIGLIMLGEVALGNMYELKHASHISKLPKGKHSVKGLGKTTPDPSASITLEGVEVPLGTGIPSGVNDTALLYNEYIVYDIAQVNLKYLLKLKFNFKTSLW
smiles,measurement,setting,value
"CN1CCN(c2ccc3[nH]c(=O)c4ccccc4c3n2)CC1 [GPI 16539, 2-(4-methyl-piperazin-1-yl)-5H-benzo[c][1,5]naphthyridin-6-one]",Anti-inflammatory effects in gut inflammation,[1]; post-injury administration,potent anti-inflammatory effects
same,Accumulation of poly (ADP-ribose) in ileum and colon,"[1]; splanchnic artery occlusion-shocked rats, dinitrobenzene sulfonic acid-treated rats",diminished
CN(C)CC(=O)Nc1ccc2[nH]c(=O)c3ccccc3c2c1 [PJ34],Plaque formation in atherosclerosis,[2],markedly decreased
"O=C1N=C2SCC=C2c2ccccc21 [TIQ-A, thieno[2,3-c]isoquinolin-5-one]",Plaque Number (mean ± S.D.) Abdominal Aorta,[3]; [17],5.7 ± 0.94
same,Plaque Number (mean ± S.D.) Thoracic Aorta,[3]; [17],6.0 ± 1.53
same,Plaque size (median ± S.D.) Abdominal Aorta,[3]; [17],3.06 ± 0.66 mm^2
same,Plaque size (median ± S.D.) Thoracic Aorta,[3]; [17],7.18 ± 2.02* mm^2
same,Plaque number in the abdominal region (in words),[3]; Group 6,significant reduction in plaque number
same,"Regression of established plaques, thoracic and abdominal regions of the aorta",[3]; Group 6,statistically significant regression of established plaques
same,Plaque Number (mean ± S.D.) Abdominal Aorta,[3]; [18],4.0 ± 1.29
same,Plaque Number (mean ± S.D.) Thoracic Aorta,[3]; [18],4.20 ± 0.69
same,Plaque size (median ± S.D.) Abdominal Aorta,[3]; [18],1.96 ± 0.48 mm^2
same,Plaque size (median ± S.D.) Thoracic Aorta,[3]; [18],5.12 ± 1.68*‡† mm^2
same,Lesion size in the abdominal region (in words),"[3]; Group 6, difference not statistically significant",trended lower
same,LDL level,[4],significantly lowered
same,Total cholesterol level,[4],significantly lowered
same,Expression of ICAM-1 (quantitative RT-PCR),[5],significantly reduced
same,"Expression of the MCP-1 receptor, CCR2",[6],no difference
same,TNF expression (quantitative RT-PCR),[7],significantly down-regulated
same,Eosinophil infiltration and associated mucus production in lung airways,[8],suppressed
same,"Th2 cytokines, including IL-4 IL-5 and IL-13",[8],suppressed
same,PAS-positive goblet cells in lungs,[9]; TIQ-A one or six hours after challenge,nearly absent
same,Mucus production (histological mucin index),[9]; TIQ-A prior to OVA challenge,significantly reduced
same,Mucus production (histological mucin index),[9]; post-challenge treatment with TIQ-A,effectively blocked mucus production completely
same,CD68 immunoreactivity,[10]; Group 6,significantly reduced
same,Collagen density by trichrome staining,[10]; Group 6,significant increase in collagen density
same,Fibrous cap by trichrome staining,[10]; Group 6,much thicker fibrous cap
same,Foam cells in plaques,[10]; Group 6,fewer foam cells
same,Plaque size by microscopic examination,[10]; Group 6,much smaller
same,Smooth muscle actin immunoreactivity,[10]; Group 6,significant increase
same,MCP-1 immunoreactivity of plaques,[10]; TIQ-A-treated mice,decrease
same,Eosinophil recruitment into lungs,[11]; TIQ-A 6 mg/kg i.p. prior to OVA-challenge,significantly suppressed
same,Number of eosinophils in BAL fluids,[11]; post-challenge administration compared with administration prior to challenge,substantially below that seen when the drug was administered prior to challenge
same,Infiltration of inflammatory cells into the airways,[11]; single TIQ-A i.p. injection one hour or six hours after challenge,greatly reduced
same,Airway hyperresponsiveness to inhaled methacholine,[12],almost completely blocked
same,IgE production,[13]; TIQ-A after OVA challenge,almost completely blocked
same,Levels of OVA-specific IgE in BAL fluid,[13]; TIQ-A prior to OVA challenge,moderate reduction
same,Expression of MCP-1 (RT-PCR),[14],significantly reduced
same,"Production of IL-4, IL-5 and IL-13 in BAL fluids",[15],more effectively suppressed by administering TIQ-A after the OVA challenge than before challenge
CN(C)[C@@H]1C(O)=C(C(N)=O)C(=O)[C@@]2(O)C(O)=C3C(=O)c4c(O)ccc(Cl)c4[C@@H](O)[C@H]3C[C@@H]12 [demeclocycline],Rank order of potency of tetracycline derivatives,[16],minocycline>doxycycline>demeclocycline>chlortetracycline
